Reference: patent US6673791B2, “Non-nucleoside reverse transcriptase inhibitors” (Boehringer Ingelheim (Canada) Ltd., priority 2001, dated 2004)
Like-named read-outs stand apart in the source and are kept apart here.

Key:
[1] = target: T1, K103N/Y181C double mutant RT (HIV-1 RT) (Human immunodeficiency virus type 1 group M subtype B, UniProt P03366, K702N/Y780C); test: biochemical
T1 construct: mutations that occur in the reverse transcriptase segment of the pol gene

[2] = target: T2, V106A mutant RT (HIV-1 RT) (Human immunodeficiency virus type 1 group M subtype B, UniProt P03366, V705A); test: biochemical
T2 construct: mutations that occur in the reverse transcriptase segment of the pol gene

WT RT (HIV-1 RT) = target: T3, WT RT (HIV-1 RT) (Human immunodeficiency virus type 1 group M subtype B, UniProt P03366); test: biochemical
T3 construct: mutations that occur in the reverse transcriptase segment of the pol gene

[3] = target: T4, Y188L mutant RT (HIV-1 RT) (Human immunodeficiency virus type 1 group M subtype B, UniProt P03366, Y787L); test: biochemical
T4 construct: mutations that occur in the reverse transcriptase segment of the pol gene

[4] = test system: WT RT (HIV-1 wild type strain); test: EC50 assay, WT RT strain; format: cell-based
From the text: (§1) Reverse TranscriptASE (RT) Assays
(§2) The assays are as described in WO 01/96338A1, the contents of which are hereby incorporated herein. The results are listed in Tables 8 as IC50(nM) and EC50(nM).

[5] = test system: V106A (HIV-1 mutant strain); test: EC50 assay, V106A strain; format: cell-based; conditions: Human immunodeficiency virus 1, read-out: EC50 V106A (nM)
From the text: as §1, §2

[6] = test system: K103N/Y181C (HIV-1 double mutant strain); test: EC50 assay, K103N/Y181C strain; format: cell-based
From the text: as §1, §2

[7] = Human immunodeficiency virus 1, read-out: EC50 WT RT (nM)
[8] = Human immunodeficiency virus 1, read-out: EC50 K103N/Y181C (nM), K103N/Y181C double mutant

Structure (SMILES) | IC50 [1] | IC50 ([2]; IC50 V106A (nM)) | IC50 (WT RT (HIV-1 RT)) | IC50 ([3]; IC50 Y188L (nM)) | EC50 [4, 7] | EC50 [5] | EC50 [6, 8] | IC50 ([1]; K103N/Y181C double mutant RT, read-out: IC50 K103N/Y181C) | IC50 ([2]; read-out: IC50 V106A) | IC50 (WT RT (HIV-1 RT); wild type RT, read-out: IC50 WT RT) | IC50 ([3]; read-out: IC50 Y188L) | EC50 ([4]; wild type, read-out: EC50 WT RT) | EC50 ([6]; K103N/Y181C double mutant, read-out: EC50 K103N/Y181C)
CCN1c2ncc(CCOc3ccc(C(=O)O)c4c3CCN(C(=O)OC)C4)cc2C(=O)N(C)c2cccnc21 [Entry 7002] | 100 to 1000 nM | > 1000 nM | < 100 nM | 100 to 1000 nM | < 100 nM | 100 to 1000 nM | < 100 nM | – | – | – | – | – | –
CCN1c2ncc(CCOc3ccc(NS(=O)(=O)C(F)(F)F)c4ccccc34)cc2C(=O)N(C)c2ccc(F)nc21 [Entry 2002] | 100 to 1000 nM | > 1000 nM | < 100 nM | > 1000 nM | < 100 nM | 100 to 1000 nM | < 100 nM | – | – | – | – | – | –
CCN1c2ncc(CCOc3ccc(/C=C(\C)C(=O)O)c4ccccc34)cc2C(=O)N(C)c2ccc(Cl)nc21 [Entry 1036] | 100 to 1000 nM | 100 to 1000 nM | < 100 nM | > 1000 nM | < 100 nM | – | < 100 nM | – | – | – | – | – | –
CCN1c2ncc(CCOc3ccc(CC(=O)O)c4ccccc34)cc2C(=O)N(C)c2ccc(F)nc21 [Entry 1009] | 100 to 1000 nM | > 1000 nM | < 100 nM | > 1000 nM | < 100 nM | – | < 100 nM | – | – | – | – | – | –
CCN1c2ncc(CCOc3ccc(CC(=O)O)c4ccccc34)cc2C(=O)N(C)c2cccnc21 [Entry 1008] | – | – | – | – | – | – | – | 100 to 1000 nM | > 1000 nM | < 100 nM | > 1000 nM | < 100 nM | < 100 nM
CCN1c2ncc(CCOc3ccc(C(=O)O)c4c3CCCC4)cc2C(=O)N(C)c2ccc(Cl)nc21 [Entry 5002] | 100 to 1000 nM | > 1000 nM | < 100 nM | 100 to 1000 nM | < 100 nM | – | < 100 nM | – | – | – | – | – | –
CCN1c2ncc(CCOc3ccc(C(=O)O)c4c3CCCC4)cc2C(=O)N(C)c2cccnc21 [Entry 5001] | 100 to 1000 nM | > 1000 nM | < 100 nM | > 1000 nM | < 100 nM | 100 to 1000 nM | < 100 nM | – | – | – | – | – | –
